The results in this text go back to PubChem BioAssay AID248 (DTP/NCI, 2004).

“And” between values parts separate entries of the source, which are not always exact repeats. Equal entries are not always repeated. Toxic doses and inconclusive results are not listed. Square brackets hold non-standard residues; d marks the D form. Peptide text beside a SMILES is read from it. * marks the point of attachment. ξ: configuration not given here. ξH = NC(Cc1c[nH]cn1)C(=O)O; Cbz = O=C(OCc1ccccc1)*

In the experiment the test system is L1210 leukemia ip in BDF1 mice, survival T/C. In words: NCI In Vivo Anticancer Drug Screen. Data for tumor model L1210 Leukemia (intraperitoneal) in B6D2F1 (BDF1) mice. Particulars: endpoint: mean survival time, higher = longer survival. The method in brief:
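Value reflects the ratio of survival in compound-treated mice to survival in vehicle-treated controls, with both groups carrying the same transplanted tumor.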

[1] abbreviates: dose: 100.0 mg/kg/injection, schedule: Q04DX003 (ip), vehicle: Klucel (hydroxypropylcellulose) (HPC).
Setting [2] is: dose: 200.0 mg/kg/injection, schedule: Q04DX003 (ip), vehicle: Klucel (hydroxypropylcellulose) (HPC).
Setting [3] is: dose: 400.0 mg/kg/injection, schedule: Q04DX003 (ip), vehicle: Klucel (hydroxypropylcellulose) (HPC).
Setting [4] is: dose: 100.0 mg/kg/injection, schedule: Q01DX001 (ip), vehicle: saline.
Where [5] appears, read: dose: 200.0 mg/kg/injection, schedule: Q01DX001 (ip), vehicle: saline.
The mark [6] stands for this setting: dose: 400.0 mg/kg/injection, schedule: Q01DX001 (ip), vehicle: saline.
Setting [7] is: dose: 30.0 mg/kg/injection, schedule: Q01DX Z (ip), vehicle: saline.
[8] abbreviates: dose: 60.0 mg/kg/injection, schedule: Q01DX Z (ip), vehicle: saline.
Where [9] appears, read: dose: 120.0 mg/kg/injection, schedule: Q01DX Z (ip), vehicle: saline.
Where [10] appears, read: dose: 100.0 mg/kg/injection, schedule: Q04DX003 (ip), vehicle: saline with Tween-80.
[11] abbreviates: dose: 400.0 mg/kg/injection, schedule: Q04DX003 (ip), vehicle: saline with Tween-80.
Setting [12] is: dose: 200.0 mg/kg/injection, schedule: Q04DX003 (ip), vehicle: saline with Tween-80.
Where [13] appears, read: dose: 100.0 mg/kg/injection, schedule: Q01DX009 (ip), vehicle: saline.
Setting [14] is: dose: 100.0 mg/kg/injection, schedule: Q01DX009 (ip), vehicle: saline with Tween-80.

On to `CCC(=O)c1ccc(OC(C)=O)cc1`, for which the T/C was 100 % of control (dose: 222.0 mg/kg/injection, schedule: Q01DX Z (ip), vehicle: carboxymethylcellulose (CMC)); 118 % of control (dose: 333.0 mg/kg/injection, schedule: Q01DX Z (ip), vehicle: carboxymethylcellulose (CMC)); 108 % of control (dose: 500.0 mg/kg/injection, schedule: Q01DX Z (ip), vehicle: carboxymethylcellulose (CMC)).

Consider `NC(=S)N/N=C(\c1ccc(Br)cc1)C1CC1`, for which the T/C was 105 % of control (dose: 2.0 mg/kg/injection, schedule: Q01DX Z (ip), vehicle: carboxymethylcellulose (CMC)); 102 % of control (dose: 4.0 mg/kg/injection, schedule: Q01DX Z (ip), vehicle: carboxymethylcellulose (CMC)); 115 % of control (dose: 4.0 mg/kg/injection, schedule: Q01DX Z (oral), vehicle: carboxymethylcellulose (CMC)); 113 % of control (dose: 8.0 mg/kg/injection, schedule: Q01DX Z (ip), vehicle: carboxymethylcellulose (CMC)); 115 % of control (dose: 8.0 mg/kg/injection, schedule: Q01DX Z (oral), vehicle: carboxymethylcellulose (CMC)); 107 % of control (dose: 16.0 mg/kg/injection, schedule: Q01DX Z (oral), vehicle: carboxymethylcellulose (CMC)).

For the molecule `NC(=O)Oc1ccc(Cc2ccccc2)cc1`, the T/C runs as follows: (dose: 100.0 mg/kg/injection, schedule: Q01DX009 (ip), vehicle: Klucel (hydroxypropylcellulose) (HPC)) 97 % of control; under setting [1], 95 % of control; (dose: 200.0 mg/kg/injection, schedule: Q01DX009 (ip), vehicle: Klucel (hydroxypropylcellulose) (HPC)) 103 % of control; under setting [2], 97 % of control; (dose: 400.0 mg/kg/injection, schedule: Q01DX009 (ip), vehicle: Klucel (hydroxypropylcellulose) (HPC)) 110 % of control; under setting [3], 95 % of control.

As to `Ic1ccc(/C=N/Nc2nnc(N/N=C/c3ccc(I)cc3)c3ccccc23)cc1`, the T/C was 98 % of control (dose: 50.0 mg/kg/injection, schedule: Q01DX001 (ip), vehicle: saline); 96 % of control under setting [4]; 98 % of control under setting [5]; 98 % of control under setting [6].

In the case of `Cc1nc(N)nc(N)c1Oc1ccc(Cl)cc1`, the T/C is 96 % of control under setting [7], 98 % of control under setting [8] and 102 % of control under setting [9].

Consider `CCC1OCCN1C(C)C` (configuration not stated), for which the T/C by setting is: (dose: 26.0 mg/kg/injection, schedule: Q01DX Z (ip), vehicle: other) 105 % of control; (dose: 90.0 mg/kg/injection, schedule: Q01DX Z (ip), vehicle: other) 111 % of control; under setting [4], 102 % of control and 104 % of control; (dose: 135.0 mg/kg/injection, schedule: Q01DX Z (ip), vehicle: other) 95 % of control; under setting [5], 96 % of control and 104 % of control; under setting [6], 92 % of control and 93 % of control.

Consider `N#CC(Oc1ccccc1)c1ccccc1` (configuration not stated), for which the T/C under setting [10] was 98 % of control and the T/C under setting [11] is 104 % of control.

`COc1ccc(C(=S)N(CC(C)C)c2ccccc2)cc1`: the T/C by setting is: under setting [1], 94 % of control; under setting [2], 95 % of control; under setting [3], 94 % of control.

Turning to `NC(=O)C[n+]1cccc(C(=O)Nc2ccc(Cl)cc2)c1`, the T/C by setting is: under setting [10], 98 % of control; under setting [12], 101 % of control.

Regarding `Cc1ccc(S(=O)(=O)NN=C(/C=C/c2ccccc2)/C=C/c2ccccc2)cc1`, the T/C (dose: 50.0 mg/kg/injection, schedule: Q01DX001 (ip), vehicle: Klucel (hydroxypropylcellulose) (HPC)) was 102 % of control; the T/C (dose: 100.0 mg/kg/injection, schedule: Q01DX001 (ip), vehicle: Klucel (hydroxypropylcellulose) (HPC)) was 107 % of control; the T/C (dose: 200.0 mg/kg/injection, schedule: Q01DX001 (ip), vehicle: Klucel (hydroxypropylcellulose) (HPC)) is 103 % of control.

Regarding `C[N+](C)(C)CCS(=O)(=O)[O-]`, the T/C was 90 % of control under setting [13]; 95 % of control (dose: 200.0 mg/kg/injection, schedule: Q01DX009 (ip), vehicle: saline); 95 % of control (dose: 400.0 mg/kg/injection, schedule: Q01DX009 (ip), vehicle: saline).

Take `NC(=O)c1cn[nH]c1/N=N/N(CCF)CCF`: the T/C (dose: 9.5 mg/kg/injection, schedule: Q01DX001 (ip), vehicle: other) is 111 % of control; the T/C (dose: 10.0 mg/kg/injection, schedule: Q01DX009 (ip), vehicle: other) is 119 % of control; the T/C (dose: 19.0 mg/kg/injection, schedule: Q01DX001 (ip), vehicle: other) was 124 % of control.

Take `O=C(CNC(=O)OCc1ccccc1)NC(Cc1cnc[nH]1)C(=O)O` (stereo not drawn) (Cbz-Gly-[ξH]-OH): the T/C is 96 % of control under setting [4], 104 % of control under setting [5] and 107 % of control under setting [6].

As to `CC(C)(C)c1ccc(SC(=O)Nc2cc([N+](=O)[O-])ccc2Cl)cc1`, the T/C is 90 % of control (dose: 25.0 mg/kg/injection, schedule: Q01DX009 (ip), vehicle: saline with Tween-80); 101 % of control (dose: 50.0 mg/kg/injection, schedule: Q01DX009 (ip), vehicle: saline with Tween-80); 100 % of control and 92 % of control under setting [14].

Regarding `COc1cc(C(=O)Nc2ccc(C3=NCCN3)cc2)cc(C(=O)Nc2ccc(C3=NCCN3)cc2)c1`, the T/C is 211 % of control under setting [7]; 275 % of control under setting [8]; 114 % of control (dose: 60.0 mg/kg/injection, schedule: Q01DX Z (oral), vehicle: saline); 151 % of control under setting [9]; 119 % of control (dose: 120.0 mg/kg/injection, schedule: Q01DX Z (oral), vehicle: saline); 101 % of control (dose: 240.0 mg/kg/injection, schedule: Q01DX Z (oral), vehicle: saline). Besides, the T/C (dose: 480.0 mg/kg/injection, schedule: Q01DX Z (oral), vehicle: saline) is 100 % of control.

`CSC(N)=S`: the T/C (dose: 50.0 mg/kg/injection, schedule: Q01DX009 (ip), vehicle: saline) was 96 % of control; the T/C (dose: 50.0 mg/kg/injection, schedule: Q04DX003 (ip), vehicle: saline) is 97 % of control; the T/C under setting [13] was 94 % of control; the T/C (dose: 100.0 mg/kg/injection, schedule: Q04DX003 (ip), vehicle: saline) is 99 % of control; the T/C (dose: 200.0 mg/kg/injection, schedule: Q04DX003 (ip), vehicle: saline) was 99 % of control.

Take `COc1ccc(C(=O)C[N+](=O)[O-])cc1`: the T/C was 94 % of control under setting [14]; 106 % of control under setting [10]; 99 % of control (dose: 200.0 mg/kg/injection, schedule: Q01DX009 (ip), vehicle: saline with Tween-80); 103 % of control under setting [12]; 101 % of control under setting [11].
